Data published in patent publication US6864251B2, “Treatment of LTB4-mediated inflammatory disorders with optically-pure (R)-2,3-benzodiazepines” (Vela Pharmaceuticals, Inc., priority 2002, dated 2005).
Where “and” joins values, the source holds several entries; their conditions need not be identical. Identical values can stand only once.

Key:
LTB4 receptor = LTB4 receptor (Cavia porcellus, UniProt H0VYV8); assay: LTB4 binding assay, displacement of [3H]LTB4, guinea pig spleen membrane
Protocol: Reactions were carried out in a phosphate buffer (pH 7.4) containing NaCl, MgCl2, EDTA, and bacitracin. The reaction volume of 150 μL containing 1.0 mg/mL of the Guinea pig spleen membrane preparation and 1 nM [^3H]LTB4, with or without a competitor, was incubated at 0-4° C. for 2 hours. Competitors included 2,3-benzodiazepines, and LTB4 as a control. The reaction was terminated by rapid vacuum filtration onto glass fiber filters. The filter was washed with cold buffer, dried and placed in a scintillation vial. Radioactivity trapped onto the filters was determined and compared to control values in order to ascertain any interactions of the test compound with the LTB4 binding site.

[1] = system: LTB4-induced dermal inflammation; assay: Rabbit model of LTB4-induced dermal inflammation, histopathology of intradermal challenge sites; assay type: in vivo, New Zealand White Rabbits; parameters: key to Inflammation score / Edema score: 0=normal; T=trace; 1=minimal; 2=mild; 3=moderate; 4=marked; settings: test article IP 60 mg/kg (dexamethasone 0.5 mg/kg), 4 hr after challenge
Protocol: Test compounds were prepared as follows. The vehicle was first prepared by dissolving […] of hydroxypropylmethylcellulose 2910 (HPMC)(Sigma Chemical, St. Louis, Mo.) in 50 mL of 0.9% saline to yield a concentration of 2% HPMC. The three test articles, (R)-, (S)- and racemic tofisopam, were formulated by adding 1 g of each test article to 10 mL of vehicle.
On Day 0, the rabbits were sedated with ketamine/xylazine (35/5 mg/kg, s.c.) and an area of approximately 8×14 cm on the back was closely and carefully clipped to expose the skin, but not inflame or otherwise damage the epithelium. A grid of ten squares each approximately 2.5×2.5 cm was drawn on each animal's back using an indelible marker. The animals were then dosed intraperitoneally with the appropriate test article corresponding to the group. Thirty minutes after dosing with test or control article, the animals were challenged intradermally with the LTB4 or LTB4-aminopropamide (LTB4-AP, a synthetic LTB4 agonist) in the appropriate site as shown in Table 4. Each injection site was marked with an indelible marker in order to identify the exact location of the intradermal injection site. Sixty minutes after challenge, the animals were treated again with tofisopam or control articles. The animals were sacrificed 4 hrs. after challenge, and the intradermal injection sites were excised, fixed in 10% neutral buffered formalin (NBF), and submitted for histopathology. H&E-stained sections were read by a board-certified veterinary pathologist using light microscopy.
All animals were sacrificed 4 hr after challenge. The intradermal challenge sites were excised, placed on unique cardboard squares, fixed in 10% NBF, and submitted for histopathology. The skin sections included the epidermis and the subcutis, down to the back musculature.
The marked skin sections were fixed for at least 48 hours on small cardboard squares. At gross trimming, three levels were cut through marked skin region in order to assure that the injection sites is brought into the plane of section. The skins were gross trimmed, processed by dehydration, embedded in paraffin, sectioned at 3-5 μm, and stained with hematoxylin and eosin.
The tissues were evaluated histopathologically via light microscopy by a board-certified veterinary pathologist. Initially, the identity of the slides was masked in order to perform the initial evaluation and rank the slides. The slides were then unmasked and there was a careful assessment of the lesions and careful comparison of the tofisopam-treated sites to the vehicle and positive control tissues. The lesions were graded based upon the degree of inflammation and the degree of edema. The severity of the inflammation and edema was keyed as follows: 0=normal; T=trace; 1=minimal; 2=mild; 3=moderate; 4=marked.

LTB4 receptor, sequence (H0VYV8 1-348): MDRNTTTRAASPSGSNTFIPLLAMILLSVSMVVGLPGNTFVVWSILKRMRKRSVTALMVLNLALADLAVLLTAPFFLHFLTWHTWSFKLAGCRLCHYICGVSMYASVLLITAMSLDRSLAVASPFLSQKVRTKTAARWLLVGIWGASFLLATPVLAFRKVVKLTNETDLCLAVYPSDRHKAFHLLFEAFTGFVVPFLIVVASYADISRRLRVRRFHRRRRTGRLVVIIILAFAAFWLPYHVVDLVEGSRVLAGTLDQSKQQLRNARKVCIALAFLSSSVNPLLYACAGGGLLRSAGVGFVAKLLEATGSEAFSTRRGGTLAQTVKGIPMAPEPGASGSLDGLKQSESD

`CCCCC/C=C\C[C@@H](O)/C=C/C=C/C=C\[C@@H](O)CCCC(=O)O` [LTB4, Leukotriene B4] gave a Ki (LTB4 receptor) of 0.2 to 0.9 nM.
In the case of `C[C@@H]1C[C@H]2[C@@H]3CCC4=CC(=O)C=C[C@]4(C)[C@@]3(F)[C@@H](O)C[C@]2(C)[C@@]1(O)C(=O)CO` [dexamethasone], the Edema score ([1]; injection site: LTB4 500 ng) is reported as 2 and 3, the Inflammation score ([1]; injection site: LTB4 500 ng) is reported as 2 and 3 and the Edema score ([1]; injection site: LTB4 1000 ng) is reported as 2 and 3. For the same compound, the Inflammation score ([1]; injection site: LTB4 1000 ng) was 3, the Edema score ([1]; injection site: LTB4 2000 ng) was 3 and 2 and 1 and the Edema score ([1]; injection site: LTB-ap 500 ng) was 2 and 3. For the same compound, the Inflammation score ([1]; injection site: LTB-ap 500 ng) was 3 and 2, the Edema score ([1]; injection site: LTB-ap 1000 ng) was 3 and the Inflammation score ([1]; injection site: LTB-ap 1000 ng) was 2. For the same compound, the Edema score ([1]; injection site: LTB-ap 2000 ng) was 3 and 1 and 2, the Inflammation score ([1]; injection site: LTB-ap 2000 ng) was 2 and 1 and the Edema score ([1]; injection site: Vehicle 0 ng) was 1 and 0. The Inflammation score ([1]; injection site: Vehicle 0 ng) was 1 and 0.
